Paper PMC8698377, “In Vitro Hepatic Assessment of Cineole and Its Derivatives in Common Brushtail Possums (Trichosurus vulpecula) and Rodents” (Biology, 2021)

Columns and labels:
CYP3A [1] = test: CYP3A catalytic activity (erythromycin-N-demethylation), mouse hepatic microsomes; assay type: in vitro ADME; settings: for activity at 30 min, 12.5 µM / activity at 30 min, 25 µM: read-out: CYP3A catalytic activity, % of Control
Description: (§1) Microsomal preparation was as previously outlined. Individual livers were placed in beakers containing 1.15% KCl. All the procedures were carried out at 0–4 °C. The liver samples were minced and homogenised in buffer A (0.1 M Tris, 0.1 M potassium chloride, 1 mM EDTA, and 20 μM butylated hydroxytoluene, at pH = 7.4) using the Teflon-glass homogeniser (5–6 vertical passes). The samples were centrifuged for 20 min at 10,000× g. The supernatant was then transferred into another set of centrifuge tubes and spun for 60 min at 100,000× g. The pellet was resuspended in Buffer B (0.1 M potassium pyrophosphate, 1 mM EDTA, and 20 μM butylated hydroxytoluene, at pH = 7.4), homogenised and recentrifuged for 60 min at 100,000× g. Finally, the pellet was homogenised in 1–2 mL of Buffer C (10 mM Tris-HCl, 1 mM EDTA, and 4% glycerol (v/v)) and stored at […] until used. The protein concentration of the microsomes was determined using the Bicinchoninic acid (BCA) method.
(§2) CYP3A catalytic activity was determined using the erythromycin-N-demethylation activity assay as described previously. The reaction mixture (final volume of 1 mL and final protein concentration of 1 mg) contained 500 µL of microsomes in 0.1 M phosphate buffer (pH = 7.4), 400 µL of erythromycin buffer (0.45 mM), and 50 µL of the test compound was pre-warmed at 37 °C for 2 min. The reaction was initiated with 50 µL of 2.5 mM […] and incubated at 37 °C for 30 min (optimised incubation time). The reaction was stopped with the addition of 330 µL of 15% zinc sulphate. Tubes were vortexed and left for 5 min (at room temperature) and then 330 µL of saturated barium hydroxide was added. Tubes were further vortexed and left for 5 min (at room temperature). Tubes were then centrifuged at 1800 g for 10 min. To 830 µL of the supernatant, 330 µL of Nash reagent (30% (w/v) ammonium acetate, 0.4% (v/v) acetyl acetone) was added and further incubated at 60 °C for 30 min. The blank tube contained 330 µL of Nash reagent and 830 µL of Milli-Q-water. The tubes were centrifuged again at 1800× g for 10 min and the absorbance was read at 415 nm. Results presented are the mean ± SEM of 3 independent experiments conducted in duplicate.

CYP3A [2] = test: CYP3A catalytic activity (erythromycin-N-demethylation), rat hepatic microsomes; assay type: in vitro ADME; settings: for activity at 30 min, 12.5 µM / activity at 30 min, 25 µM: liver microsomes, pH 7.4, probe erythromycin, read-out: CYP3A catalytic activity, % of Control
Description: as §1, §2

CYP3A [3] = test: CYP3A catalytic activity (erythromycin-N-demethylation), possum hepatic microsomes; assay type: in vitro ADME, possum (Trichosurus vulpecula); settings: for activity at 30 min, 12.5 µM / activity at 30 min, 25 µM: possum (Trichosurus vulpecula), liver microsomes, pH 7.4, probe erythromycin, read-out: CYP3A catalytic activity, % of Control
Description: as §1, §2

UGT [4] = test: p-nitrophenol glucuronidation, mouse hepatic microsomes; assay type: in vitro ADME
Description: as §1
(§3) The rate of p-nitrophenol glucuronidation was determined as previously reported. In short, the incubation mixture (500 µL in total) contained; 100 µL of 1 mg/mL microsomes, 50 µL of 1 M Tris-HCl (pH = 7.4), 20 µL of 0.25% (v/v) Triton-X 100, 50 µL of 50 mM MgCl2, 130 µL of double distilled water, 50 µL of 5 mM p-nitrophenol, 50 µL of the test compound, and 50 µL of uridine 5′-diphosphoglucuronic acid trisodium salt (UDPGA). The blank tubes had all components except UDPGA and microsomes; instead, 150 µL of 0.1 M phosphate buffer was added to equal the volume as the reaction mixture. The reaction mixture and the blank were incubated at 37 °C for 2 min. Then, 50 µL of 30 mM UDPGA was added to initiate the reaction which proceeded at 37 °C for 30 min (optimised incubation time). The reaction was stopped using 1 mL of 5% trichloroacetic acid (TCA). The tubes were centrifuged at 1800 g for 10 min and then 1 mL of supernatant was added to 250 µL of 2 M sodium hydroxide (NaOH). The absorbance was read at 405 nm. The sample reading was subtracted from the blank absorbance and divided by the extinction coefficient of p-nitrophenol ([…]) and the light path of the spectrophotometer (1 cm). The glucuronidation activities are expressed in µmol/mg/min and are the mean ± SEM of 3 independent experiments conducted in duplicate.

UGT [5] = test: p-nitrophenol glucuronidation, rat hepatic microsomes; assay type: in vitro ADME
Description: as §1, §3

UGT [6] = test: p-nitrophenol glucuronidation, possum hepatic microsomes; assay type: in vitro ADME, possum (Trichosurus vulpecula)
Description: as §1, §3

humans = tested on: humans; design: method as in PMID 7651249; settings: cited from earlier work
dogs = settings: cited from earlier work
mice = tested on: mice; design: method as in earlier work; settings: cited from earlier work
rats = tested on: rats; design: method as in PMID 6068552; settings: cited from earlier work
possums = tested on: possums; design: method as in doi:10.1023/A:1020863216892; settings: cited from earlier work
[7] = tested on: CYP enzymes (preferably CYP3A); design: method as in PMID 11465406; settings: possums; cited from earlier work
CYP3A [8] = settings: possum vs human liver microsomes; cited from earlier work
[9] = liver microsomes, pH 7.4, probe erythromycin, 12.5 µM
[10] = liver microsomes, pH 7.4, probe erythromycin, 25 µM

SMILES	CYP3A catalytic activity (CYP3A [1]; 12.5 µM) [nmol/mg/min]	CYP3A catalytic activity (CYP3A [1]; 25 µM) [nmol/mg/min]	activity at 30 min, 12.5 µM (CYP3A [1]; [9]) [%]	activity at 30 min, 25 µM (CYP3A [1]; [10]) [%]	CYP3A catalytic activity (CYP3A [2]; 12.5 µM) [nmol/mg/min]	CYP3A catalytic activity (CYP3A [2]; 25 µM) [nmol/mg/min]	activity at 30 min, 12.5 µM (CYP3A [2]; 12.5 µM) [%]	activity at 30 min, 25 µM (CYP3A [2]; 25 µM) [%]	CYP3A catalytic activity (CYP3A [3]; 12.5 µM) [nmol/mg/min]	CYP3A catalytic activity (CYP3A [3]; 25 µM) [nmol/mg/min]	activity at 30 min, 12.5 µM (CYP3A [3]; 12.5 µM) [%]	activity at 30 min, 25 µM (CYP3A [3]; 25 µM) [%]	p-nitrophenol glucuronidation activity (UGT [4]; 12.5 µM) [µmol/mg/min]	p-nitrophenol glucuronidation, % of Control (UGT [4]; 12.5 µM) [%]	p-nitrophenol glucuronidation activity (UGT [4]; 25 µM) [µmol/mg/min]	p-nitrophenol glucuronidation, % of Control (UGT [4]; 25 µM) [%]	p-nitrophenol glucuronidation activity (UGT [5]; 12.5 µM) [µmol/mg/min]	p-nitrophenol glucuronidation, % of Control (UGT [5]; 12.5 µM) [%]	p-nitrophenol glucuronidation activity (UGT [5]; 25 µM) [µmol/mg/min]	p-nitrophenol glucuronidation, % of Control (UGT [5]; 25 µM) [%]	further results
CC12CCC(CC1)C(C)(C)O2 [Cineole, 1,3,3-trimethyl-2-oxabicyclo [2.2.2]octane]	0.68 ± 0.02	0.64 ± 0.02	101 ± 2.93	94.5 ± 2.69	0.64 ± 0.05	0.65 ± 0.05	101 ± 2.31	101 ± 1.62	0.40 ± 0.01	0.41 ± 0.01	99.5 ± 2.67	101.9 ± 0.29	2.00 ± 0.16	100.36 ± 1.99	1.90 ± 0.16	94.21 ± 1.51	2.46 ± 0.12	90.25 ± 6.49	2.67 ± 0.21	98.18 ± 9.75	activity at 30 min, 50 µM (CYP3A [1]; liver microsomes, pH 7.4, probe erythromycin, 50 µM, read-out: CYP3A catalytic activity, % of control): 89.3%; inhibition of CYP3A catalytic activity (CYP3A [2]; 50 µM): no major inhibition; inhibition of CYP3A catalytic activity (CYP3A [3]; 50 µM): no major inhibition; inhibition of p-nitrophenol glucuronidation (UGT [4]; 50 µM): failed to significantly inhibit; inhibition of p-nitrophenol glucuronidation (UGT [5]; 50 µM): failed to significantly inhibit; p-nitrophenol glucuronidation activity (UGT [6]; 12.5 µM): 4.09 ± 0.18 µmol/mg/min; p-nitrophenol glucuronidation, % of Control (UGT [6]; 12.5 µM): 99.39 ± 1.71%; p-nitrophenol glucuronidation activity (UGT [6]; 25 µM): 4.18 ± 0.13 µmol/mg/min; p-nitrophenol glucuronidation, % of Control (UGT [6]; 25 µM): 101.80 ± 1.12%; inhibition of p-nitrophenol glucuronidation (UGT [6]; 50 µM): failed to significantly inhibit; toxic dose following ingestion (humans): < 1000 mg/kg; toxic dose following ingestion (dogs): 1500 mg/kg; toxic dose following ingestion (mice): 50 mg/kg; toxic dose following ingestion (rats): 2500 mg/kg; toxic dose following ingestion (possums): 3600 mg/kg; share of total intrinsic clearance, 3-hydroxycineole [7]: 14%; share of total intrinsic clearance, 7-hydroxycineole [7]: 11%; share of total intrinsic clearance, conversion to 9-hydroxycineole [7]: 75%
CC1(O)CCC(C(C)(C)O)CC1 (stereo in doubt) [Trans-terpin, trans-terpin]	0.71 ± 0.03	0.70 ± 0.03	101 ± 2.7	99.64 ± 0.93	0.59 ± 0.04	0.60 ± 0.06	98.3 ± 3.1	99.3 ± 1	0.41 ± 0.02	0.40 ± 0.03	106 ± 1.42	103 ± 6.11	2.44 ± 0.06	101.67 ± 0.74	2.33 ± 0.07	97.15 ± 1.80	2.87 ± 0.22	104.14 ± 9.44	2.50 ± 0.10	90.51 ± 3.63	p-nitrophenol glucuronidation activity (UGT [6]; 12.5 µM): 3.90 ± 0.34 µmol/mg/min; p-nitrophenol glucuronidation, % of Control (UGT [6]; 12.5 µM): 99.53 ± 0.84%; p-nitrophenol glucuronidation activity (UGT [6]; 25 µM): 3.91 ± 0.34 µmol/mg/min; p-nitrophenol glucuronidation, % of Control (UGT [6]; 25 µM): 99.77 ± 0.60%
CCCCCC12CCC(C(=O)O)(CC1)CC2 [4-pentylbicyclo[2.2.2]octane-1-carboxylic acid]	0.61 ± 0.04	0.67 ± 0.01	96.3 ± 1.91	106 ± 2.97	0.56 ± 0.05	0.55 ± 0.06	105 ± 3.3	102 ± 2.42	0.40 ± 0.05	0.40 ± 0.02	109 ± 3.58	111 ± 7.26	2.41 ± 0.06	98.73 ± 3.51	2.21 ± 0.14	90.15 ± 2.18	2.88 ± 0.13	103.95 ± 3.65	2.82 ± 0.07	101.89 ± 3.31	p-nitrophenol glucuronidation activity (UGT [6]; 12.5 µM): 3.80 ± 0.27 µmol/mg/min; p-nitrophenol glucuronidation, % of Control (UGT [6]; 12.5 µM): 98.44 ± 1.05%; p-nitrophenol glucuronidation activity (UGT [6]; 25 µM): 3.96 ± 0.17 µmol/mg/min; p-nitrophenol glucuronidation, % of Control (UGT [6]; 25 µM): 102.71 ± 1.91%
CC1(C)CCCCC1 [1,1-dimethylcyclohexane]	0.73 ± 0.03	0.79 ± 0.04	98.93 ± 0.94	107 ± 1.13	0.61 ± 0.07	0.61 ± 0.10	103 ± 7.68	100 ± 1.66	0.38 ± 0.01	0.40 ± 0.02	98 ± 1.28	101.8 ± 0.61	2.48 ± 0.13	105.97 ± 2.23	2.19 ± 0.09	93.67 ± 1.67	2.59 ± 0.08	100.53 ± 2.39	2.58 ± 0.05	100.29 ± 3.55	p-nitrophenol glucuronidation activity (UGT [6]; 12.5 µM): 4.08 ± 0.18 µmol/mg/min; p-nitrophenol glucuronidation, % of Control (UGT [6]; 12.5 µM): 100.68 ± 0.60%; p-nitrophenol glucuronidation activity (UGT [6]; 25 µM): 4.03 ± 0.23 µmol/mg/min; p-nitrophenol glucuronidation, % of Control (UGT [6]; 25 µM): 99.32 ± 0.90%
Cc1ncc2n1-c1ccc(Cl)cc1C(c1ccccc1F)=NC2 [midazolam]	–	–	–	–	–	–	–	–	–	–	–	–	–	–	–	–	–	–	–	–	Vmax of 1′-hydroxylmiazolam, fold lower in possum than in human liver microsomes (CYP3A [8]): 8 fold; Vmax of 4-hydroxymidazolam, fold lower in possum than in human liver microsomes (CYP3A [8]): 23 fold
